Laboratory results published in US11135224B2, “Methods of sensitizing estrogen receptor positive (ER+) breast cancer cells to endocrine therapy” (New York University, priority 2018, dated 2021).

Legend:
[1] = tested on: ATF2 phosphorylation at Thr69/71 (target of RSK, JNK1, p38 MAPK) and eIF4B S422 (target of RSKs); assay: Immunoblot of ATF2 and eIF4B phosphorylation in TamR cells; type: cell-based, human; conditions: 10 μM for 6 hours
Experimental: (§1) Hsp70 (loading control). […] Cells were treated with DMSO, 1 μM 4-OH Tam, 4-OH Tam and CGP 57380 (10 μM), or 1 μM 4-OH Tam, CGP57380, and 20 nM RAD001 therapies 24 hours after plating. Treatment was changed every 72 hours. Colonies were scored after 10 days counting only >50 cells/colony. Results are representative of three independent experiments. SEM is shown. […] Results from three independent experiments. Error bars represent SEM (n.s.=not significant). […] Equal amounts of RNA were resolved by sucrose gradient centrifugation and ribosome profiles monitored by UV absorbance 254 nm. Results are representative images of two independent experiments.
Immunoblot Studies: In brief, cells were lysed in NP-40 buffer (50 mM HEPES, pH 7.0, 150 mM NaCl, 2 mM EDTA, 25 mM NaF, 25 mM β-glycerophosphate, 2 mM Na3VO4, 1% IGEPAL, and Complete Mini protease inhibitor cocktail tablet+/−EDTA; Roche) or RIPA lysis buffer (1% Triton X-100, 1% sodium deoxycholate, 0.1% SDS, 150 mM NaCl, 50 mM Tris, pH 7.4, 2 mM Na3VO4, 25 mM β-glycerophosphate, 15 mM NaF, and complete protease inhibitor mix; Roche) and lysate cleared by centrifugation at 13,000 rpm for 10 minutes at 4° C. Lysate protein concentration was determined for each sample using BCA assay. […] Quantitation was performed by determination of the integrated density of the bands using ImageJ software. […]

[2] = tested on: global protein synthesis in TamS and TamR cells; assay: [35S]-methionine metabolic labeling, overall protein synthesis; type: cell-based, human; conditions: 10 μM for 24 hours, [35S]-methionine labeling 30 minutes
Experimental: as §1
^35S-Methionine Metabolic Protein Labeling: Global protein synthesis was measured as previously described (Ramirez-Valle et al., “eIF4GI Links Nutrient Sensing by mTOR to Cell Proliferation and Inhibition of Autophagy,” J. Cell Biol. 181(2):293-307 (2008), which is incorporated herein by reference in its entirety). Cells (2×10^5) were seeded, in triplicate, into 6-well culture plates and allowed to adhere for 48-72 hours. Cells were labeled with 25 μCi ^355-methionine/cysteine protein labeling mix (PerkinElmer) for 30 minutes at 37° C. using DMEM without L-Methionine or L-Cysteine supplemented with 5% FBS. […] Protein concentration was measured by the BCA assay (Thermo Scientific). […]

Structure (SMILES): Nc1ncnc2n[nH]c(Nc3ccc(F)cc3)c12 [CGP57380]
- phosphorylation of ATF2 Thr69/71 and eIF4B S422 [1]: no change in phosphorylation
- reduction in global protein synthesis [2]: 10%
